US20060058299A1, “N-2s-4-3,4-difluorobenzyl morpholin-2yl methyl -2-(3-methylsulphonyl amino!phenyl acetamide as ccr3 antagonist for the treatment of inflammatory conditions” (priority 2002, published 2006)

Columns and labels:
[1] = molecular target: T1, CCR-3 (Homo sapiens, UniProt P51677); experiment: CCR-3 competition binding SPA ([125I]eotaxin); conditions: membranes from K562 cells stably expressing CCR-3; 20 pM [125I]eotaxin; mean of at least two experiments; read-out: pIC50 (inhibition of [125I]eotaxin binding) (converted)
T1 construct: expressed in transfected cells; membranes)
T1 sequence (P51677 1-355): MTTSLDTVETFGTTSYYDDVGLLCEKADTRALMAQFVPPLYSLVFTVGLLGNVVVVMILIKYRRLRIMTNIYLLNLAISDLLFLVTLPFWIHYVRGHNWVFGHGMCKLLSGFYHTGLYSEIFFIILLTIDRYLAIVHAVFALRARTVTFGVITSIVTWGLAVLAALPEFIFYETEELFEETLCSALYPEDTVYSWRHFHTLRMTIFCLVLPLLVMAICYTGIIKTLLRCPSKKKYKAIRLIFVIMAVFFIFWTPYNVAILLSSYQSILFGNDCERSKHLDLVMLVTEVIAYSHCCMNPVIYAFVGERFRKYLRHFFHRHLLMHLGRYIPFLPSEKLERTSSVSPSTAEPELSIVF
Description: A CCR-3 competition binding SPA (scintillation proximity assay) was used to assess the affinity of novel compounds for CCR-3. Membranes prepared from K562 cells stably expressing CCR-3 (2.5 μg/well) were mixed with 0.25 mg/well wheat-germ agglutinin SPA beads (Amersham) and incubated in binding buffer (HEPES 50 mM, CaCl2 1 mM, MgCl2 5 mM, 0.5% BSA) at 4° C. for 1.5 hr. Following incubation, 20 pM of [^125I] eotaxin (Amersham) and increasing concentrations of compound (1 pM to 30 μM) were added and incubated in a 96 well plate for 2 hr at 22° C. then counted on a Microbeta plate counter. The total assay volume was 100 μl. Competition binding data were analysed by fitting the data with a four parameter logistic equation. Data are presented as the mean pIC50 values (negative logarithm of the concentration of compound which inhibits [^125I]eotaxin binding by 50%) from at least two experiments.

[2] = molecular target: eosinophils purified from human peripheral blood; experiment: Eosinophil chemotaxis assay (eotaxin-induced); type: cell-based; conditions: agonist eotaxin at EC80 concentration
Description: (b) Eosinophil Chemotaxis Assay.
The compound was evaluated for its inhibitory effect on eosinophil chemotaxis. Eosinophils were purified from human peripheral blood by standard CD16 cell depletion using a Miltenyi cell separation column and a magnetic Super Macs magnet as previously described (Motegi & Kita, 1998; J. Immunology. 161:4340-6). Cells were re-suspended in RPMI 1640/10% FCS solution and incubated with calcein-AM (Molecular Probes) at 37° C. for 30 mins. Following incubation, the eosinophils were centrifuged at 400 g for 5 min and re-suspended in RPMI/FCS at 2.2 million/ml. Cells were then incubated in the presence of increasing concentration of compounds (1 pM to 30 μM) at 37° C. for 30 mins. For control responses cells were incubated with RPMI/FCS only. The agonist eotaxin (an EC80 concentration) was added to the lower chamber of a 96 well chemotaxis plate (5 μm filter. Receptor Technologies). Eosinophils (50 μl of 2 million/ml cells) were added to the top chamber of the filter plate and incubated at 37° C. for 45 mins. Cells remaining on top of the chemotaxis filter were removed and the number of eosinophils which had migrated were quantified by reading the plate on a fluorescent plate reader. Inhibition curves for the effect of compounds on eosinophil chemotaxis were analysed by fitting the data with a four parameter logistic equation. […]

## CS(=O)(=O)Nc1cccc(CC(=O)NC[C@H]2CN(Cc3ccc(F)c(F)c3)CCO2)c1 [Example 1, N-{[(2S)-4-(3.4-difluorobenzyl)morpholin-2-yl]methyl}-2-{3-[(methylsulfonyl)amino]phenyl}acetamide]
[1]
  IC50: 10 nM
[2]
  fpKi (functional pKi, eosinophil chemotaxis): 8.4
